We go through 1 compound from patent US9730872B2, “Method for improving skin conditions with veratric acid or acceptable salt thereof as an active ingredient” (Bio Spectrum, Inc., priority 2012, dated 2017).

For experiment [1], the system named is hairless mice (Skh: HR-1). The experiment in a line: Wrinkle prevention by oral administration in UV-irradiated hairless mice (skin replicas). It counts as in vivo. The note with it: 100 mg per kg oral, 5 weeks. How it is done:
In order to measure the wrinkle-preventing effect of veratric acid, 6-7-week-old hairless mice (Skh: HR-1) were divided into a control group, a UV group and a UV/veratric acid group, each consisting of 8 animals, and were bred during the test period. The control group and the UV group were administered orally with 0.5 ml of saline, and the UV/veratric acid group was administered orally with a solution of 100 mg per kg veratric acid in 0.5 ml of saline.
The above-prepared samples were administered orally at the same point of time for 5 days a week for a total of 5 weeks. From 2 weeks to 5 weeks after oral administration, the UV group and the UV/veratric acid group were irradiated with UV light three times a week such that the total dose of UV radiation reached 600 mJ/cm^2.
To measure the wrinkle-preventing effect of veratric acid, skin replicas were taken from the back of the hairless mice using a silicon polymer before autopsy. In the same manner, after 5 weeks, skin replicas were taken from the groups treated with each of the samples. Using the taken skin replicas, the antiaging effect, i.e., wrinkle-reducing effect of each sample was measured.

Experiment [2] has as its system insulin-like growth factor-1 (IGF-1). The experiment can be described thus: IGF-1 secretion of hair follicle dermal papilla cells (ELISA). It counts as cell-based, Human. As to conditions: 0, 10 and 100 μM, 48 hours; FIG. 2. How it is done: Human hair follicle dermal papillar cells (Application, Inc., USA) were seeded into a 24-well micro plate at density of 7.5×10^4 cells per well, and then were cultured in a 5% CO2 incubator at 37° C. for 24 hours. Then, the medium was replaced with serum-free medium, followed by being cultured for 16 hours. Then, each well was treated with 0, 10 and 100 μM of veratric acid, after which the cells were incubated for 48 hours. Then, the cell culture media were collected.
The secretion rate of growth factor insulin-like growth factor-1 (IGF-1) was determined by measuring the amount of secretion rate of IGF-1 using Insulin-like growth factor-1 quantikine ELISA kit (DG100, R&D system, USA).
(ELISA stands for enzyme-linked immunosorbent assay.)

The next experiment relates to fibroblast. The experiment in a line: UV-preventing effect, cell viability after UVB (MTT), fibroblasts. The experiment is classed as cell-based. As to conditions: pretreated 0, 1, 10 and 100 μM 24 hours, UVB 20 mJ/cm^2, 48 hours; FIG. 5. How it is done: (§1) Keratinocyte (HaCaT) and fibroblast were cultured in DMEM medium containing penicillin-streptomycin and serum. Then, the cells were seeded into a 12-well micro plate at density of about 1×10^5 cells per well, and were cultured in a 5% CO2 incubator at 37° C. until the cells attached about 80% over on well-area. Then, each well was pretreated with 0, 1, 10 and 100 μM of veratric acid, and after 24 hours, the medium was replaced with PBS, and then the cells were irradiated with UV (UVB 20 mJ/cm^2). Then, the UV-irradiated cells were replaced DMEM medium containing penicillin-streptomycin and serum, the cells were incubated for 48 hours. The cell viability was determined by measuring the viability of keratinocyte (HaCaT) and fibroblast using a MTT assay (30-1010K, ATCCTM).

The next experiment deals with Keratinocyte (HaCaT). The experiment in a line: UV-preventing effect, cell viability after UVB (MTT), keratinocytes. The note with it: pretreated 0, 1, 10 and 100 μM 24 hours, UVB 20 mJ/cm^2, 48 hours; FIG. 6. The experiment is classed as cell-based. How it is done:
as §1

In experiment [3] the test system is transforming growth factor-beta1 (TGF-beta1). The experiment can be described thus: Inhibition of TGF-beta1 production in hair follicle dermal papilla cells (ELISA). The experiment is classed as cell-based, Human. As to conditions: 0, 10 and 100 μM, 48 hours; FIG. 3. How it is done:
Human hair follicle dermal papillar cells (Application, Inc., USA) were seeded into a 24-well micro plate at a density of 7.5×10^4 cells per well, and then were cultured in a 5% CO2 incubator at 37° C. for 24 hours. Then, the medium was replaced with serum-free medium, followed by being cultured for 16 hours. Then, each well was treated with 0, 10 and 100 μM of veratric acid, after which the cells were incubated for 48 hours. Then, the cell culture media were collected.
The secretion rate of transforming growth factor-beta1 (TGF-beta1) was determined by measuring the amount of secretion rate of TGF-beta1 using Human LAP TFG-beta1 ELISA kit (ab100647, abcam, USA).

A further experiment has as its system collagenase (MMP-1). The experiment in a line: Inhibition of collagenase production in human normal fibroblasts (MMP-1 ELISA). It counts as cell-based. As to conditions: 0, 1, 10 and 100 μM, 24 hours; FIG. 7. How it is done:
Human normal fibroblasts (Department of Dermatology, Ajou University) were seeded into a 24-well micro plate containing DMEM medium at a density of about 2×10^5 cells per well, and were then cultured in a 5% CO2 incubator at 37° C. for 24 hours. Then, the medium was removed from each well, and the cells were treated with 0, 1, 10 and 100 μM concentrations of veratric acid. Then, the cells were cultured for 24 hours, after which the cell culture media were collected, thereby preparing samples.
The inhibition effects of collagenase production was determined by measuring the amount of collagenase using MMP-1 ELISA kit (QIA55, Merck, Germany).

Experiment [4] relates to procollagen type I C-peptide (PICP). The experiment can be described thus: Collagen synthesis in human normal fibroblasts (PICP EIA). The experiment is classed as cell-based. The note with it: 0, 1, 10 and 100 μM, 24 hours; FIG. 4. How it is done:
Human normal fibroblasts (Department of Dermatology, Ajou University) were seeded into a 24-well micro plate containing DMEM medium at a density of about 2×10^5 cells per well, and were cultured in a 5% CO2 incubator at 37° C. for 24 hours. Then, the medium was removed from each well of the plate, and each well was treated with 0, 1, 10 and 100 μM concentrations of veratric acid, after which the cells were cultured for 24 hours. Then, the cell medium was collected, thereby preparing samples.
The amounts of collagen synthesis in the above-prepared samples was determined by measuring the amount of procollagen type I C-peptide (PICP) using a Procollagen Type I C-peptide EIA kit (MK101; Takara, Kyoto, Japan).

For experiment [5], the system named is Human hair follicle dermal papillar cells. The experiment can be described thus: Proliferation of human hair follicle dermal papilla cells (MTT). The experiment is classed as cell-based. The note with it: 0, 10 and 100 μM, 72 hours, FIG. 1. How it is done: Human hair follicle dermal papillar cells (Application, Inc., USA) were seeded into a 6-well micro plate containing DMEM medium (Gibco, USA) with FBS at a density of 3×10^5 cells per well, and then were cultured in a 5% CO2 incubator at 37° C. for 24 hours. The next day, the cells were washed once with serum-free medium, and the medium was replaced with serum-free medium. Then, the cells were treated with 0, 10 and 100 μM of veratric acid, followed by incubating for 72 hours, after which the cells were washed once with serum-free medium, the medium was replaced with serum-free medium containing 10% MTT, and after 3 hours, the optical density (O.D.) value was measured and calculated as a percentage of control.

A further experiment concerns human skin. The experiment in a line: Wrinkle-reducing effect of nourishing cream, skin elasticity. The experiment is classed as in vivo. As to conditions: face, twice a day, 3 months, scale 0 to 5. How it is done:
Specifically, an aqueous phase including purified water, triethanolamine, and propylene glycol was dissolved by heating to 70° C., and an oily phase including fatty acid, oily components, an emulsifier, and a preservative was dissolved by heating to 70° C. and added to the aqueous phase. Then, the resulting solution was cooled to 45° C., and veratric acid was added with in amounts of 0, 0.01, 0.05 and 1 wt % based on the total weight of the composition and was dispersed, followed by cooling to 30° C.
In the measurement of skin elasticity, nourishing creams described in Preparation Example 8-1 was applied to the face of 30 healthy women of 21 to 42 years old twice a day for 3 months. The control group was used nourishing cream containing purified water.
The effect on wrinkle reduction was evaluated by measuring a change in skin elasticity. The measurement of skin elasticity was performed with Coutometer SEM 474 (Courage+Khazaka, Cologne, Germany) under the conditions of constant temperature of 24˜26° C. and constant humidity of 38-40%. The evaluation criteria were as follows 0 indicating no improvement in skin elasticity, and 5 indicating improvement in skin elasticity.

Setting [6] is: UV/veratric acid group, UV total 600 mJ/cm^2.

As for `COc1ccc(C(=O)O)cc1OC` [Veratric acid, 3,4-dimethoxybenzoic acid], the “R-parameter value compared to the UV/control groups” value in experiment [1] is “reduced”. Also, in experiment [1] (setting [6]), the “R1 value: Skin roughness” value was 0.462 ± 0.013, the “R2 value: Maximum roughness” value stood at 0.405 ± 0.011, the “R3 value: Average roughness” value was determined as 0.219 ± 0.012 and the “R4 value: Smoothness depth” value is listed as 0.116 ± 0.010. Moreover, in experiment [1] (setting [6]), the “R5 value: Arithmetic average roughness” value turned out to be 0.290 ± 0.013. Further, in experiment [2], the IGF-1 secretion result is “increased the IGF-1 secretion of human hair follicle dermal pailla cells in a concentration-dependent manner”. In the experiment with fibroblast, the “cell death of UV-induced fibroblasts (cell viability)” value is “prevented cell death”. The “cell death of UV-induced keratinocyte (cell viability)” value with Keratinocyte (HaCaT) is given as “prevented cell death”. For the same compound, the TGF-beta1 production result in experiment [3] is “excellently inhibited TGF-beta1 production”. For the same compound, the collagenase production entry in the experiment with collagenase (MMP-1) was “decreased collgenase production in human normal fibroblasts”. Besides, the “collagen synthesis (PICP)” value in experiment [4] is reported as “increased collagen synthesis”. Also, the “proliferation of human hair follicle dermal papilla cells (O.D. as percentage of control)” value in [5] is listed as “increased the proliferation of human hair follicle dermal papilla cells in a concentration-dependent manner”. Further, in the experiment with human skin (veratric acid 0.01 wt %), the Skin elasticity was 2.81. This compound also yielded a Skin elasticity in the experiment with human skin (veratric acid 0.05 wt %) of 3.12. This compound also displayed a Skin elasticity with human skin (veratric acid 1 wt %) of 3.36.
